In one series the test system is Caco-2 cell monolayers. In words: Caco-2 cell permeability. Format: in vitro ADME, human. Particulars: polarized Caco-2 cell monolayers. On the technique in general: Caco-2 monolayers are a common model of the intestinal barrier.
Series [1] has as its system human induced pluripotent stem cell (iPSC)-derived cardiomyocytes, iCell Cardiomyocytes2. In words: Cardiac safety assay, Ca2+ oscillation in iPSC-derived cardiomyocytes. The conditions noted are these: 60 minutes, n = 3.

The structures appear in SMILES notation.

Consider `O=C(C1CCCCC1)N1CC(=O)N2CCc3ccccc3C2C1` (centres unmarked) [PZQ, praziquantel, reference compound], for which the “Caco-2 cell permeability Class” value with Caco-2 cell monolayers is recorded as “High”.
For the molecule `O=C(C1CCCCC1)N1CON2CCc3ccccc3C2C1` (centres unmarked) [Compound 4], in the series with Caco-2 cell monolayers, the “Caco-2 cell permeability Class” value is reported as “High”. The “Effect on pulse waveforms and beat intervals (Ca2+ oscillation)” value in series [1] (0.2 μM) is “did not affect the pulse waveforms and beat intervals”; in series [1] (2 μM), “the pulse waveforms remained unchanged, but a slight shortening of beat intervals was observed for up to 30 minutes post-addition”; in series [1] (20 μM) it was “did not alter the pulse waveforms, but resulted in shortened beat intervals”.
